# Test results as given in patent publication US5563155A, “Individual stereosiomers of 7-[3-(aminoalkyl)-1-pyrrolidinyl]-quinolones and naphthyridones as antibacterial agents” (Warner-Lambert Company, priority 1995, dated 1996).
# Where two headings read alike, the source gives them in different places.
# Columns and labels:
# Ent. cloacae MA2646 = assay: in vitro antibacterial activity, microtitration dilution (MIC), Ent. cloacae MA2646; type: cell-based; settings: Enterobacter cloacae, read-out: minimum inhibiting concentration (MIC)
# In short: (§1)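 Readout: lowest compound concentration inhibiting growth (MIC, μg/mL), measured by serial dilution in microtitration format.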
# Esch. coli Vogel [1] = assay: in vitro antibacterial activity, microtitration dilution (MIC), Esch. coli Vogel; type: cell-based; settings: Escherichia coli, read-out: minimum inhibiting concentration (MIC)
# In short: as §1
# Klebs. pneumoniae MGH-2 = assay: in vitro antibacterial activity, microtitration dilution (MIC), Klebs. pneumoniae MGH-2; type: cell-based; settings: Klebsiella pneumoniae, MGH2, read-out: minimum inhibiting concentration (MIC)
# In short: as §1
# Prot. rettgeri M 1771 = assay: in vitro antibacterial activity, microtitration dilution (MIC), Prot. rettgeri M 1771; type: cell-based; settings: Providencia rettgeri, M1771, read-out: minimum inhibiting concentration (MIC)
# In short: as §1
# Pseud. aeruginosa UI-18 [2] = assay: in vitro antibacterial activity, microtitration dilution (MIC), Pseud. aeruginosa UI-18; type: cell-based; settings: Pseudomonas aeruginosa, UI18, read-out: minimum inhibiting concentration (MIC)
# In short: as §1
# Staph. aureus H 228 = assay: in vitro antibacterial activity, microtitration dilution (MIC), Staph. aureus H 228; type: cell-based; settings: Staphylococcus aureus, H228, read-out: minimum inhibiting concentration (MIC)
# In short: as §1
# Staph. aureus UC-76 = assay: in vitro antibacterial activity, microtitration dilution (MIC), Staph. aureus UC-76; type: cell-based; settings: Staphylococcus aureus, UC76, read-out: minimum inhibiting concentration (MIC)
# In short: as §1
# Strep. faecalis MGH-2 = assay: in vitro antibacterial activity, microtitration dilution (MIC), Strep. faecalis MGH-2; type: cell-based; settings: Enterococcus faecalis, MGH2, read-out: minimum inhibiting concentration (MIC)
# In short: as §1
# Strep. pheumoniae SV-1 [3] = assay: in vitro antibacterial activity, microtitration dilution (MIC), Strep. pneumoniae SV-1; type: cell-based; settings: Streptococcus pneumoniae, SV1, read-out: minimum inhibiting concentration (MIC)
# In short: as §1
# Strep. pyogenes C-203 [4] = assay: in vitro antibacterial activity, microtitration dilution (MIC), Strep. pyogenes C-203; type: cell-based; settings: Streptococcus pyogenes, C203, read-out: minimum inhibiting concentration (MIC)
# In short: as §1
# Esch. coli Vogel [5] = assay: median protective dose in mice given lethal systemic infections, Esch. coli Vogel; type: in vivo; settings: Escherichia coli, single dose at time of challenge, read-out: median protective dose (PD50)
# Protocol: (§2) The in vivo activity is obtained when the compounds are tested according to the procedure of Miller, et al (Proc. Soc. Exp. Biol. Med. 57, 261, 1944). The median protective dose (PD50) was determined in mice given lethal systemic infections. Single doses of compound were given at time of challenge.
# (§3) By use of the above methods, the following minimum inhibiting concentration values (MICs in μg/mL), PD50 's in mg/kg, no effect phototoxicity dose in mg/kg and the cytotoxicity IC50 in μg/mL were obtained for representative enantiomers of the invention and compounds of the prior art as shown in the table.
# (§4) The in vivo data as PD50 s are reported below the line of MICs for the same compound.
# Strep. pyogenes C-203 [6] = assay: median protective dose in mice given lethal systemic infections, Strep. pyogenes C-203; type: in vivo; settings: Streptococcus pyogenes, single dose at time of challenge, read-out: median protective dose (PD50)
# Protocol: as §2, §3, §4
# in vivo = assay: in vivo; design: species or system mice; settings: mouse, po
# Protocol: The phototoxicity data is obtained using depilated mice. The compound was administered orally each day for four successive days, followed each day by 3 hours of UVA radiation. The mice were examined for any positive signs (redness, erythema) relative to control animals. The no effect dose and the 50% effect dose were determined. By use of the above methods, the following minimum inhibiting concentration values (MICs in μg/mL), PD50 's in mg/kg, no effect phototoxicity dose in mg/kg and the cytotoxicity IC50 in μg/mL were obtained for representative enantiomers of the invention and compounds of the prior art as shown in the table.
# [7] = cytotoxicity, hamster V-79 cells, colony reduction; type: cell-based; settings: 3 hours treatment, colonies counted after 5 days, read-out: Cytotox (cytotoxicity IC50)
# Protocol: The cytotoxicity data is obtained using hamster V-79 cells. The cells were suspended in tissue culture medium and grown overnight. Cells were treated with drug for 3 hours, washed free of drug and then replated, and the colonies counted after 5 days. The concentration of drug that reduced colones by 50% relative to control was recorded.
# as §3
# Pseud. aeruginosa UI-18 [8] = assay: median protective dose in mice given lethal systemic infections, Pseud. aeruginosa UI-18; type: in vivo; settings: Pseudomonas aeruginosa, single dose at time of challenge, read-out: median protective dose (PD50)
# Protocol: as §2, §3, §4
# Strep. pheumoniae SV-1 [9] = assay: median protective dose in mice given lethal systemic infections, Strep. pneumoniae SV-1; type: in vivo; settings: Streptococcus pneumoniae, single dose at time of challenge, read-out: median protective dose (PD50)
# Protocol: as §2, §3, §4
SMILES,MIC (Ent. cloacae MA2646) [µg/mL],MIC (Esch. coli Vogel [1]) [µg/mL],MIC (Klebs. pneumoniae MGH-2) [µg/mL],MIC (Prot. rettgeri M 1771) [µg/mL],MIC (Pseud. aeruginosa UI-18 [2]) [µg/mL],MIC (Staph. aureus H 228) [µg/mL],MIC (Staph. aureus UC-76) [µg/mL],MIC (Strep. faecalis MGH-2) [µg/mL],MIC (Strep. pheumoniae SV-1 [3]) [µg/mL],MIC (Strep. pyogenes C-203 [4]) [µg/mL],ED50 (Esch. coli Vogel [5]; PO) [mg/kg],ED50 (Esch. coli Vogel [5]; SC) [mg/kg],"ED50 (Strep. pyogenes C-203 [6]; C203, PO) [mg/kg]","ED50 (Strep. pyogenes C-203 [6]; C203, SC) [mg/kg]",NOAEL at 96 h (in vivo) [mg/kg],CC50 at 3 h [7] [µg/mL],"ED50 (Pseud. aeruginosa UI-18 [8]; UI18, PO) [mg/kg]","ED50 (Pseud. aeruginosa UI-18 [8]; UI18, SC) [mg/kg]","ED50 (Strep. pheumoniae SV-1 [9]; SV1, PO) [mg/kg]","ED50 (Strep. pheumoniae SV-1 [9]; SV1, SC) [mg/kg]"
"CN[C@@H](C)[C@@H]1CCN(c2c(F)c(N)c3c(=O)c(C(=O)O)cn(C4CC4)c3c2F)C1 [Example 42, 3R,1S-5-amino-1-cyclopropyl-6,8-difluoro-7-[3-(1-N-methylaminoethyl)-1-pyrrolidinyl]-1,4-dihydro-4-oxo-3-quinoline carboxylic acid]",0.025,0.025,0.05,0.1,0.8,0.006,0.003,0.013,0.006,0.006,3,0.4,0.55,0.25,< 30,17,,,,
"C[C@@H](N)[C@H]1CCN(c2nc3c(cc2F)c(=O)c(C(=O)O)cn3C2CC2)C1 [Example 5, 3S,1R-1-cyclopropyl-6-fluoro-7-[3-(1-aminoethyl)-1-pyrrolidinyl]-1,4-dihydro-4-oxo-1,8-naphthyridine-3-carboxylic acid]",0.05,0.05,0.1,0.2,0.8,0.2,0.025,0.1,0.05,0.05,4,1,,,> 100,84,23,16,15,7
C[C@H](N)[C@@H]1CCN(c2nc3c(cc2F)c(=O)c(C(=O)O)cn3C2CC2)C1 (relative stereo) [reference compound],0.05,,0.1,0.2,,0.05,,0.05,,,,,,,55,48,,,,
C[C@@H](N)[C@@H]1CCN(c2nc3c(cc2F)c(=O)c(C(=O)O)cn3C2CC2)C1 [Example 8],0.05,0.05,0.1,0.4,0.8,0.05,0.06,0.05,0.006,0.013,6,1,,,55,100,35,12,14,2
"C[C@H](N)[C@H]1CCN(c2nc3c(cc2F)c(=O)c(C(=O)O)cn3C2CC2)C1 [Example 6, 3S,1S-1-cyclopropyl-6-fluoro-7-[3-(1-aminoethyl)-1-pyrrolidinyl]-1,4-dihydro-4-oxo-1,8-naphthyridine-3-carboxylic acid]",0.05,0.05,0.2,0.4,1.6,0.2,0.025,0.1,0.05,0.05,8,1,,,> 100,77,96,25,28,10
CCN[C@H](C)[C@@H]1CCN(c2c(F)cc3c(=O)c(C(=O)O)cn(C4CC4)c3c2OC)C1 [Example 17],0.2,0.2,0.4,0.8,3.1,0.013,0.003,0.013,0.003,0.003,14,4,2,0.6,> 100,130,,,,
